The values that follow come from patent publication US10343997B1, “Ursolic acid derivatives” (KING SAUD UNIVERSITY, priority 2018, dated 2019).

The test system of experiment [1] is guinea-pig isolated ileum. The experiment in a line: Relaxation of electrically induced contraction of guinea-pig isolated ileum. The format is cell-based. The note with it: Cavia porcellus, stimulation 25V, 0.1 Hz, 5 ms, means ± s.e., n = 6, read-out: pIC50 (−log IC50) for relaxation of electrically induced contraction (converted). On the procedure:
(§1) Male guinea-pigs, weighing between 200-400 g, were killed by a blow on the head after previously being deprived of food for 18 h but having had free access to water. The non-terminal part of the ileum was removed and cut into 20-mm long segments, which were suspended in an organ bath and connected to an isotonic transducer. The organ bath contained 50 mL physiological solution oxygenated with 95% O2 and 5% […] at 37° C. The physiological solution was typically normal saline with 0.9% sodium chloride. The fluid of the organ bath was changed every 15 min. The ileal segments were subjected to a resting tension of 0.5-1 g and left to equilibrate for 60 min.
Each segment was treated with only one compound. The pIC50 (−log IC50) value of each compound was calculated from concentration-response curves.

The test system of the next experiment is rat isolated aorta. The experiment in a line: Relaxation of potassium-induced contraction of rat isolated aorta. Conditions: rat isolated aorta pre-contracted with 40 mM KCl; means ± s.e., n = 6; read-out: pIC50 (−log IC50) for relaxation of potassium-induced contraction (converted). It counts as cell-based. On the procedure: Six white male rats were killed by a blow on the head and decapitation. The thoracic aorta of each rat was isolated, carefully dissected from the surrounding tissues, and cut into 5 segments, 3 mm in length. The segments were joined together, suspended in Krebs solution (composition in mmol: NaCl 118, KCl 4.8, CaCl2, 2.5, KH2PO4 1.2, MgSO4 1.2, NaHCO3 25 and glucose 10) at 37° C. and oxygenated with 95% O2 and 5% CO2. The fluid of the organ bath was changed every 15 min. The tissue was subject to a resting tension of 1 g and left to equilibrate for 1 h. The contractions of isolated aortic rings were recorded by means of a force transducer and Beckman physiograph. […] The pre-contracted tissue was then subject to increasing amounts of one of the calcium channel blockers added to the organ bath. The pIC50 value of each compound was calculated from concentration-response curves.

A further experiment relates to guinea-pig ileum. The experiment can be described thus: Calcium-induced contraction in K+-depolarized guinea-pig ileum. The format is cell-based. Conditions: 2×10^−9 M of compound; for Emax at 0.002 µM: Cavia porcellus, contraction induced by 3 mM calcium, 84.44% without antagonist, read-out: calcium-induced contractions, % of the maximum response. The protocol: as §1
As a control, increasing concentrations of CaCl2 (0.1, 0.3, 1, 3, 10 mmol) were added to an organ bath and the contractile response of the ileum was recorded. Tissues were then preincubated for 15-20 min with one concentration of each calcium channel blocker and increasing concentrations of CaCl2 were again added to the bathing media.
Response percentage ratios were calculated by dividing the percent of maximum responses induced by 3 mM calcium in the presence of each calcium-channel blocker at a concentration of 2×10^−9 M by the percent of maximum response induced by 3 mM calcium in the absence of any calcium-channel blocker.

Experiment [2] has as its target voltage-dependent calcium channel. The experiment in a line: In vitro 3H-nitrendipine binding assay. The note with it: competition with 3H-nitrendipine, plasma membrane from bovine cerebral cortices.
Another experiment concerns pithed rat. The experiment can be described thus: In vivo evaluation of calcium blockade in the pithed rat (cardio accelerator response). The protocol:
Calcium blockers in the pithed rat were calculated in vivo.
Male Sprague-Dawley rats (250-350 g) were anaesthetized with methohexitone sodium (50 mg/kg, intraperitoneal injection). Following cannulation of the trachea, the rats were pithed through one orbit with a stainless steel rod and immediately artificially respired with room air (78 strokes/min, 1 mil/100 g body weight) via a Palmer small animal respiration pump. A jugular vein was cannulated for administration of drugs. Arterial blood pressure was recorded from a carotid artery using a pressure transducer.
Heart rate was derived from the phasic arterial pressure signal with a phase lock loop ratemeter (BRL Instrument Services). […] The animals were kept warm by an incandescent lamp positioned about 25 cm above them. The pithing rod was withdrawn until the tip reached the thoracic portion of the spinal cord. All rats then received (+)tubocurarine (1.5 mg/kg, intravenously) and were bilaterally vagotomized.
The cardio accelerator response was obtained by continuous electrical stimulation of the thoracic spinal cord with square wave pulses of 0.5 ms duration, at supramaximal voltage at a frequency of 0.5 Hz using the pithing rod as a stimulating electrode. An indifferent electrode was inserted subcutaneously in the femoral region. Only rats with a resulting tachycardia of more than 100 beats/min were included in the experiments. When the cardio accelerator response was stabilized for about 3-5 min, cumulative intravenous doses of test drug or corresponding vehicle were administered. Successive doses were given when the response to the previous dose stabilized.
Doses of β-blockers or calcium-antagonists, which reduce the tachycardia to 50%, were tested again. Three minutes after administration of the drug, calcium gluconate (1 mg/min) or water (0.1 ml/min) was infused using a Harvard apparatus compact infusion pump.
The level of tachycardia immediately prior to drug administration was taken as 100% and responses to drugs were calculated as a percentage of the predose tachycardia. […] Significance of differences between the groups receiving calcium gluconate and their parallel vehicle controls were calculated by a Student's t-test.

The test system of a further experiment is cardiac function. The note with it: background statement; cited from earlier work.

The IC50 is the midpoint of a concentration-inhibition curve. For the compound `COC(=O)C1=C(C)NC(C)=C(OC(C)=O)C1[C@]12CC[C@@H](C)[C@H](C)[C@H]1C1=CC[C@@H]3[C@@]4(C)CC[C@H](OC)C(C)(C)C4CC[C@@]3(C)[C@]1(C)CC2` (stereo partly shown) [Compound 4, Dihydropyridine-3,5-dicarboxylate Ursolic Acid Derivative], the 50% inhibitory concentration (IC50) in experiment [1] was 0.347 nM; with rat isolated aorta, 0.0174 nM. In addition, the Response percentage ratio in the experiment with guinea-pig ileum (3 mM calcium, response with blocker divided by response without) is given as 0.15 ± 0.009. Further, the Emax at 0.002 µM with guinea-pig ileum amounted to 27%. Also, the “The affinity constant Ki” value in experiment [2] was 3.1 × 10^−13 mol/1. Further, the ID50 in the experiment on pithed rat (inhibition of electrically induced tachycardia, cumulative intravenous doses) amounted to 71620 nM. Further, in the experiment on pithed rat (result in words), the “calcium channel blocker selectivity in pithed rat assay” value was “selective calcium channel blocker”.

For the compound `COC(=O)C1=C(C)NC(C)=C(C(=O)OC)C1c1ccccc1[N+](=O)[O-]` [Nifedipine, reference compound], the half-inhibitory concentration (IC50) in experiment [1] was 35.5 nM; in the experiment on rat isolated aorta, 5.13 nM. Further, in the experiment on guinea-pig ileum, the Emax at 0.002 µM was 74%.

Turning to `CCN(CC)CC(=O)Nc1c(C)cccc1C` [lignocaine, reference compound], the “effect on tachycardia elicited by electrical stimulation of the spinal cord” value with pithed rat (result in words) is on record as “no effect”.

As to `O=C(NCCO[N+](=O)[O-])c1cccnc1` [nicorandil, reference compound], the “effect on tachycardia elicited by electrical stimulation of the spinal cord” value in the experiment on pithed rat (result in words) was “no effect”.

Turning to `C[C@H]1[C@H](C)CC[C@]2(C(=O)O)CC[C@]3(C)C(=CC[C@@H]4[C@@]5(C)CC[C@H](O)C(C)(C)[C@@H]5CC[C@]43C)[C@H]12` [ursolic acid], the heart rate decrease in the experiment with cardiac function is 32%.
